Measurements as given in US9630922B2, “3-spiro-7-hydroxamic acid tetralins as HDAC inhibitors” (Forma Therapeutics, Inc., priority 2015, dated 2017).

molecular target: T1, HDAC6 (Homo sapiens, UniProt Q9UBN7); assay: In vitro Histone Deacetylase Assay (enzymatic HDAC6 electrophoretic mobility shift assay); format: biochemical; settings: full length human recombinant HDAC6, 1 nM enzyme, 2 μM peptide substrate RHKK(Ac)-NH2, 25° C.; read-out: HDAC6 activity range
T1 construct: Full length human recombinant HDAC6 protein was expressed in baculoviral system; made in house; host or cells: baculoviral system
T1 sequence (Q9UBN7 1-1215): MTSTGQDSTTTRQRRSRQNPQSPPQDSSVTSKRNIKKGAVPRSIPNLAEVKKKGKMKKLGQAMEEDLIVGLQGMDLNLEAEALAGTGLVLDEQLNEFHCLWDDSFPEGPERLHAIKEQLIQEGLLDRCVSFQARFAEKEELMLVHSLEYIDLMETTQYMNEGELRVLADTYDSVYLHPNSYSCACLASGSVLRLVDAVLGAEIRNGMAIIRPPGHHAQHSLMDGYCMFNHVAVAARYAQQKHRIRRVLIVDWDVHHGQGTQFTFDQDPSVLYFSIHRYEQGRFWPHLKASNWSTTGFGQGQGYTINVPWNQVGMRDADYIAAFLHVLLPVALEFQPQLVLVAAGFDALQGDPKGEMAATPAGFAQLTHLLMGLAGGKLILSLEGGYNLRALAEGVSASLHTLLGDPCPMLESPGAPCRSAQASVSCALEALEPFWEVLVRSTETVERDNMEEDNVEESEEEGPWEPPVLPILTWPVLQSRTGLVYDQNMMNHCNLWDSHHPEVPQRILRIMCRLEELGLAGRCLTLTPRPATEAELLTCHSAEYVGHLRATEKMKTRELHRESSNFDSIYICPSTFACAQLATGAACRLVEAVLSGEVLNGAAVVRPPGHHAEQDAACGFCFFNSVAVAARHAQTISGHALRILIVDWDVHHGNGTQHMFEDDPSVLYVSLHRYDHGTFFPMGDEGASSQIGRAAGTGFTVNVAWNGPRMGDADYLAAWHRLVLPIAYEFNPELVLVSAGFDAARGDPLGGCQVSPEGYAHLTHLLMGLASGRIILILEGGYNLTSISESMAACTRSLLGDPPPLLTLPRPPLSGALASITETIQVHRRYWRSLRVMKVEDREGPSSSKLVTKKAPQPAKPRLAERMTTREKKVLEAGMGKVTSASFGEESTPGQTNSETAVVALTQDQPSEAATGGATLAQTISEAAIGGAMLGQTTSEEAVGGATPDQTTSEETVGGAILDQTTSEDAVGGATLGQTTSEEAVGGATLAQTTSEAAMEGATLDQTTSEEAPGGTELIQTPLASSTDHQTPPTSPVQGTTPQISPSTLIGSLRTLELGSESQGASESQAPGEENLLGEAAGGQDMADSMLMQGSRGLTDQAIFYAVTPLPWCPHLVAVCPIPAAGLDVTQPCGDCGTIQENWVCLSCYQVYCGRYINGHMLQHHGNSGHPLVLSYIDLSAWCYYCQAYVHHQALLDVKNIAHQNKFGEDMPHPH
Method in brief: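 Full-length recombinant human HDAC6 (baculovirus-expressed, 1 nM) was incubated at 25 °C with 2 μM fluorescent RHKK(Ac)-NH2 peptide in HEPES pH 7.5, KCl, BSA, Triton X-100 and 1% DMSO, then SDS-quenched. Substrate and product were separated by microfluidic mobility shift, and IC50 came from 4-parameter fits of 12-point, 3-fold dilution curves.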

Compound	IC50 [nM]
O=C(NO)c1ccc2c(c1)CCC1(CCN(C(=O)Nc3ccccc3)CC1)O2 [II-7, N6-hydroxy-N1′-phenylspiro[chromane-2,4′-piperidine]-1′,6-dicarboxamide]	100 to 500
O=C(NO)c1ccc2c(c1)CCC1(CCN(C3CCCCC3)CC1)O2 [II-8, 1′-cyclohexyl-N-hydroxyspiro[chromane-2,4′-piperidine]-6-carboxamide]	> 500
O=C(NO)c1ccc2c(c1)CCC1(CCN(C(=O)N3CC4(CCOCC4)c4ccccc43)CC1)O2 [II-9, N-hydroxy-1′-(2′,3′,5′,6′-tetrahydrospiro[indoline-3,4′-pyran]-1-carbonyl)spiro[chromane-2,4′-piperidine]-6-carboxamide]	> 500

Other lines, results leading:

IC50 [nM]	Compound
> 500	COc1ccc(C(=O)N2CCC3(CCc4cc(C(=O)NO)ccc4O3)CC2)cc1 [II-4, N-hydroxy-1′-(4-methoxybenzoyl)spiro[chromane-2,4′-piperidine]-6-carboxamide]
> 500	COc1ccc(S(=O)(=O)N2CCC3(CCc4cc(C(=O)NO)ccc4O3)CC2)cc1 [II-5, N-hydroxy-1′-((4-methoxyphenyl)sulfonyl)spiro[chromane-2,4′-piperidine]-6-carboxamide]
100 to 500	O=C(NO)c1ccc2c(c1)CCC1(CCN(S(=O)(=O)C3CCCCC3)CC1)O2 [II-6, 1′-(cyclohexylsulfonyl)-N-hydroxyspiro[chromane-2,4′-piperidine]-6-carboxamide]
